{"source": "patent US20210317145A1", "about": "“Boronic Acid Derivatives” (Merck Patent GmbH, priority 2018, published 2021)", "key": {"[1]": {"molecular_target": "LMP7 (purified human immuno proteasome) (Homo sapiens, UniProt P20618+P28062)", "experiment": "Determination of LMP7 activity (fluorescence intensity assay, Suc-LLVY-AMC)", "assay_type": "biochemical", "conditions": "for Selectivity LMP7 vs Beta5: LMP7 versus Beta5, incubation for 20 minutes; for IC50: purified human immuno proteasome 0.25 nM, incubation for 20 minutes at 25° C., Suc-LLVY-AMC 40 μM", "description": "Determination of LMP7 Activity:\nMeasurement of LMP7 inhibition is performed in 384 well format based on fluorescence intensity assay.\n(§1) Purified human immuno proteasome (0.25 nM) and serial diluted compounds in DMSO (range of concentrations from 30 μM to […]) or controls are incubated for 20 minutes or 120 minutes (long incubation) at 25° C. in assay buffer containing 50 mM Tris pH 7.4, 0.03% SDS, 1 mM EDTA and 1% DMSO. The reaction is initiated by the addition of the fluorogenic peptide substrate, Suc-LLVY-AMC (Bachem 1-1395), at a concentration of 40 μM. After 60 minutes of incubation at 37° C., fluorescence intensity is measured at λex=350 nm and λem=450 nm with a fluorescence reader (Perkin Elmer Envision reader or equivalent).\n(§2) Unless indicated otherwise the results are obtained after incubation for 20 minutes."}, "[2]": {"molecular_target": "Beta5 (purified human constitutive proteasome) (Homo sapiens, UniProt P20618+P28074)", "experiment": "Determination of Beta5 activity (fluorescence intensity assay, Suc-LLVY-AMC)", "assay_type": "biochemical", "conditions": "purified human constitutive proteasome 1.25 nM, incubation for 20 minutes at 25° C., Suc-LLVY-AMC 40 μM", "description": "Determination of Beta5 Activity:\nMeasurement of Beta5 inhibition is performed in 384 well format based on fluorescence intensity assay.\nas §1, with “constitutive” for “immuno”, “(1.25” for “(0.25”\nas §2"}, "[3]": {"molecular_target": "LMP7 subunit of the immunoproteasome (Homo sapiens, UniProt P20618+P28062)", "conditions": "Singh et al, Br. J. Hematology 152(2): 155-163; cited from earlier work"}}, "data": [{"smiles": "O=C(N[C@@H](C[C@@H]1COc2ccccc21)B(O)O)[C@@H]1CCOC1", "note": "[Compound 41, [(1R)-2-[(3S)-2,3-dihydrobenzofuran-3-yl]-1-[[(3R)-tetra-hydrofuran-3-carbonyl]-amino]ethyl]boronic acid]", "values": [{"measurement": "Selectivity LMP7 vs Beta5", "setting": "[1]", "value": "++++ (Selectivity ≥ 500)"}, {"measurement": "IC50", "setting": "[1]", "value": "50 to 500", "unit": "nM"}, {"measurement": "IC50", "setting": "[2]", "value": "5000 to 30000", "unit": "nM"}]}, {"smiles": "Cc1cccc2c1OC[C@H]2C[C@H](NC(=O)[C@@H]1CCOC1)B(O)O", "note": "[Compound 42, [(1R)-2-[(3S)-7-methyl-2,3-dihydrobenzofuran-3-yl]-1-[[(3R)-tetra-hydrofuran-3-carbonyl]-amino]ethyl]boronic acid]", "values": [{"measurement": "Selectivity LMP7 vs Beta5", "setting": "[1]", "value": "+++ (300 ≤ Selectivity < 500)"}, {"measurement": "IC50", "setting": "[1]", "value": "50 to 500", "unit": "nM"}, {"measurement": "IC50", "setting": "[2]", "value": "5000 to 30000", "unit": "nM"}]}, {"smiles": "CC1=C(C(=O)N[C@H](C)C(=O)N[C@@H](Cc2c[nH]c3ccccc23)C(=O)N[C@@H](Cc2ccccc2)C(=O)[C@@]2(C)CO2)Cc2ccccc21", "note": "[PR-924]", "values": [{"measurement": "selective inhibitor of the LMP7 subunit of the immunoproteasome", "setting": "[3]", "value": 100, "unit": "fold"}]}]}
